From US20100173995A1, “Use of PPAR-alpha activator as inflammatory skin disease-treating agent and method for treating skin diseases using the same” (Neopharm Co., Ltd., priority 2009, published 2010)

Tests used:
rats = experiment: Single dose oral toxicity test using rats; type: in vivo, rat
Experimental: (§1) In order to evaluate the safety of the PPAR-α activator compound according to the present invention for application as a skin external preparation, an animal toxicity test and a human patch test were performed.
(§2) To perform this evaluation, a single dose oral toxicity test using rats, a skin irritation test using rabbits, a skin sensitization test using guinea pigs and an ophthalmic mucous membrane irritation test using rabbits were performed as toxicity tests for PC-9S in animals. Those tests were performed based on “Toxicity Test Standards for Pharmaceutical Products” disclosed by the Korea Food & Drug Administration. Additionally, a human patch test for PC-9S was carried out on 30 subjects (average age: 24.1). […] However, when evaluating the overall results obtained from the other toxicity tests and the human patch test, it was considered that the pseudo-ceramide compound would not pose a safety problem.

rabbits [1] = experiment: Skin irritation test using rabbits; type: in vivo, rabbit
Experimental: as §1, §2

guinea pigs = experiment: Skin sensitization test using guinea pigs; type: in vivo, guinea pig
Experimental: as §1, §2

rabbits [2] = experiment: Ophthalmic mucous membrane irritation test using rabbits; type: in vivo, rabbit
Experimental: as §1, §2

human skin = experiment: Human patch test; type: in vivo; details: 30 subjects
Experimental: as §1, §2

CCCCCCCCCCCCCCCCCC(=O)C(CCCCCCCCCCCCCCCC)C(=O)NCCO (stereo not drawn) [PC-9S]
Single dose oral toxicity test (toxicity test) result (rats): No irritation
Skin irritation test using rabbits result (rabbits [1]): slight skin irritation
Skin sensitization test using guinea pigs result (guinea pigs): No irritation
Ophthalmic mucous membrane irritation test using rabbits result (rabbits [2]): No irritation
Human patch test result (human skin; 1% PC-9S): No irritation
Human patch test result (human skin; 10% PC-9S): No irritation
